Laboratory results published in PMC5603603, “Linoleic and palmitoleic acid block streptokinase-mediated plasminogen activation and reduce severity of invasive group A streptococcal infection” (Scientific Reports, 2017).
Where “and” joins values, the source holds several entries; their conditions need not be identical. Equal entries are not always repeated.

Tests used:
S. pyogenes strain AP1 = assay: Clotting assay, escape of streptococci from clot (cluster 2a type streptokinase); format: cell-based; conditions: 30 µg/ml, after 4 h, p < 0.05
Description: (§1) To assess whether LA and PA influence the entrapment of bacteria within clots, a 50 ml overnight culture (THY medium) of the S. pyogenes strains AP1 or A666 was centrifuged at 4332 × g for 10 min. […] For clot induction, 100 µl citrate plasma, 100 µl of the respective bacterial suspension and 50 µl thrombin-reagent (Haemochrom Diagnostica) were used. […] Then clots were left untreated (treated with sodium citrate buffer only) or were treated with LA or PA (diluted in sodium citrate buffer). For clots formed with S. pyogenes strain A666, a final concentration of 60 µg/ml was used for both, LA and PA. For those formed with S. pyogenes strain AP1, a final concentration of 30 µg/ml was used. 50 µl of the supernatant of each sample were plated onto blood agar plates in serial dilutions at 0, 2 and 4 h after clot induction and incubated at 37 °C overnight. Colonies were counted the following day to assess the number of bacteria which had escaped the clot. […] Two independent experiments were performed. Standard deviations were calculated accordingly. Citrate plasma was obtained from healthy volunteers who gave their informed consent.

[1] = system: recombinant cluster 2a type streptokinase; assay: Plasminogen assay using recombinant streptokinase; format: biochemical, group A streptococcal strain A614; conditions: 40 µg/ml
Description: An overnight culture of the strain A614 (in THY medium) was centrifuged at 5000 rpm for 10 min. The supernatant was discarded and the pellet was resuspended in TE-buffer (from DNeasy blood and tissue kit, Qiagen) containing 10% DNase-free RNase (10 µg/ml). The suspension was transferred to a vial filled with zirconium beads. Bacterial cells were lysed using a fastprep machine (MP Biomedical) twice for 30 sec at 4.0 m/sec. Then AL-buffer (from DNeasy blood and tissue kit, Qiagen) was added and beads were spun down for 30 sec. The lysate was transferred to a new reaction tube and proteinase K was added. The tube was inverted and incubated for 30 min at 56 °C. Then 100% ethanol was added and genomic DNA was isolated according to the protocol of the DNeasy blood and tissue kit (Qiagen). […] Using a gel electrophoresis, the 1500 bp product was detected, cut out and purified using a PCR clean-up, gel extraction kit (Machery-Nagel). […]
75 µl of the recombinant streptokinase (concentration 1 mg/ml) was added to the wells of a 96well plate followed by 69 µl PBS, 5 µl S-2251 (10 mM stock solution, chromogenic substrate for the detection of plasmin, Chromogenix) and 1 µl plasminogen (1 mg/ml stock solution, Biopur or Sigma). […] The absorption was measured at the beginning of the reaction and then every hour at 405 nm after 3 sec of shaking on a Tecan Sunrise ELISA Reader using Magellan software. […]

[2] = target: cluster 2b type streptokinase (Streptococcus pyogenes, UniProt P10520); design: species or system group A streptococcal strain A314; conditions: cell-based; for IC50: cluster 2b; for fold lower IC50 compared to TXA and EACA: streptokinase cluster type 2b
Description: Then inhibitory compounds (LA, PA, oleic, myristic, stearic, palmitic, arachidonic, arachidic, linolenic acid, TXA or EACA) were added. Stocks of LA and PA were prepared in methanol and then diluted in PBS. Stocks of arachidic, oleic, arachidonic, myristic, palmitic, stearic and linolenic acid were prepared in 60% DMSO/PBS and then diluted in PBS. The untreated control received the same amount of PBS as in case of TXA and EACA as control or the same amount of methanol diluted in PBS as in case of LA and PA, respectively, or the same amount of DMSO diluted in PBS as in case of the other commercially available fatty acids. […] The assay was incubated at 37 °C and measured at the beginning of the reaction and then every hour at 405 nm after 3 sec of shaking on a Tecan Sunrise ELISAReader using Magellan software. Each experiment was repeated three times. IC50 values were calculated using Microsoft® Excel software.

S. pyogenes strain A666 = assay: Clotting assay, escape of streptococci from clot (cluster 2b type streptokinase); format: cell-based; conditions: 60 µg/ml, after 4 h, p < 0.05
Description: as §1

| Structure (SMILES) | GAS escaped from the clot compared to the untreated clot (S. pyogenes strain AP1) | inhibition of plasminogen activation [1] | IC50 [2] | fold lower IC50 compared to TXA and EACA [2] | GAS escaped from the clot compared to the untreated clot (S. pyogenes strain A666) |
| --- | --- | --- | --- | --- | --- |
| CCCCC/C=C\C/C=C\CCCCCCCC(=O)O [LA, linoleic acid] | significantly lower amount of GAS escaped | 60–70% | 64.5 µM and 61.7 µM | 1000 fold | significantly lower amount of GAS escaped |
| CCCCCC/C=C\CCCCCCCC(=O)O [PA, palmitoleic acid] | significantly lower amount of GAS escaped | 60–70% | 61.1 µM and 63.3 µM | 1000 fold | significantly lower amount of GAS escaped |
